The subject of the test is P388 leukemia ip, CD2F1 mice, survival T/C. The experiment in a line: NCI In Vivo Anticancer Drug Screen. Data for tumor model P388 Leukemia (intraperitoneal) in CD2F1 (CDF1) mice. To be noted: endpoint: median survival time, higher = longer survival. Put shortly: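 Mice carrying the transplanted tumor received test compound or vehicle. Survival was recorded in each group, and the value is the treated-group measurement divided by that of the vehicle-treated control group.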

Setting [1] is: dose: 25.0 mg/kg/injection, schedule: Q01DX009 (ip), vehicle: saline with Tween-80.
The mark [2] stands for this setting: dose: 50.0 mg/kg/injection, schedule: Q01DX009 (ip), vehicle: saline with Tween-80.
Setting [3] is: dose: 50.0 mg/kg/injection, schedule: Q04DX003 (ip), vehicle: saline with Tween-80.
Setting [4] is: dose: 100.0 mg/kg/injection, schedule: Q01DX009 (ip), vehicle: saline with Tween-80.
[5] abbreviates: dose: 100.0 mg/kg/injection, schedule: Q04DX003 (ip), vehicle: saline with Tween-80.
The mark [6] stands for this setting: dose: 50.0 mg/kg/injection, schedule: Q01DX005 (ip), vehicle: saline with Tween-80.
[7] abbreviates: dose: 100.0 mg/kg/injection, schedule: Q01DX005 (ip), vehicle: saline with Tween-80.
Setting [8] is: dose: 200.0 mg/kg/injection, schedule: Q01DX005 (ip), vehicle: saline with Tween-80.
The mark [9] stands for this setting: dose: 50.0 mg/kg/injection, schedule: Q01DX009 (ip), vehicle: saline.
[10] abbreviates: dose: 100.0 mg/kg/injection, schedule: Q01DX009 (ip), vehicle: saline.
The mark [11] stands for this setting: dose: 200.0 mg/kg/injection, schedule: Q01DX009 (ip), vehicle: saline.
Where [12] appears, read: dose: 200.0 mg/kg/injection, schedule: Q01DX009 (ip), vehicle: saline with Tween-80.
Setting [13] is: dose: 400.0 mg/kg/injection, schedule: Q01DX009 (ip), vehicle: saline with Tween-80.
[14] abbreviates: dose: 50.0 mg/kg/injection, schedule: Q01DX005 (ip), vehicle: Klucel (hydroxypropylcellulose) (HPC).
Setting [15] is: dose: 100.0 mg/kg/injection, schedule: Q01DX005 (ip), vehicle: Klucel (hydroxypropylcellulose) (HPC).
[16] abbreviates: dose: 200.0 mg/kg/injection, schedule: Q01DX005 (ip), vehicle: Klucel (hydroxypropylcellulose) (HPC).

Where “and” joins values, the source holds several entries; their conditions need not be identical. Identical values can stand only once. Inconclusive results and toxic doses are left out.

Consider `CCOC(=O)C(NC(=O)C(Cc1ccc(N(CCCl)CCCl)cc1)NC(C)=O)C(C)C` (stereo unspecified), for which the T/C runs as follows: (dose: 3.13 mg/kg/injection, schedule: Q04DX003 (ip), vehicle: saline) 100 % of control; (dose: 6.25 mg/kg/injection, schedule: Q04DX003 (ip), vehicle: saline) 109 % of control; (dose: 12.5 mg/kg/injection, schedule: Q04DX003 (ip), vehicle: saline) 118 % of control; under setting [1], 160 % of control; under setting [2], 180 % of control; under setting [3], 159 % of control. Further, the T/C reads like this: under setting [4], 245 % of control; under setting [5], 163 % of control and 175 % of control; (dose: 150.0 mg/kg/injection, schedule: Q04DX003 (ip), vehicle: other) 151 % of control; (dose: 160.0 mg/kg/injection, schedule: Q04DX003 (ip), vehicle: other) 161 % of control; (dose: 200.0 mg/kg/injection, schedule: Q04DX003 (ip), vehicle: saline with Tween-80) 154 % of control; (dose: 300.0 mg/kg/injection, schedule: Q04DX003 (ip), vehicle: other) 174 % of control. In addition, where the note is “dose: 400.0 mg/kg/injection, schedule: Q04DX003 (ip), vehicle: other”, the T/C is 159 % of control.
As for `CNCCCN1c2ccccc2CCc2ccccc21`, the T/C under setting [6] is 103 % of control.
In the case of `COCCCN1CC(=O)N2Cc3ccccc3CN2C(=O)C1`, the T/C under setting [6] was 98 % of control, the T/C under setting [7] is 98 % of control and the T/C under setting [8] was 103 % of control.
Take `Sc1ccccc1N=Cc1ccc(C=Nc2ccccc2S)cc1`: the T/C by setting is: under setting [9], 98 % of control; under setting [10], 99 % of control; under setting [11], 97 % of control.
As to `CCCCNc1cc(-c2c(N)nc(N)nc2CC)ccc1[N+](=O)[O-]`, the T/C is 101 % of control under setting [6], 101 % of control under setting [7] and 94 % of control under setting [8].
As to `Clc1cnc(Oc2ccccc2)c2ccccc12`, the T/C by setting is: under setting [6], 104 % of control; under setting [7], 103 % of control; under setting [8], 88 % of control.
As for `CN=C(N)NN=C1c2ccccc2-c2ccccc21`, the T/C is, setting by setting: (dose: 25.0 mg/kg/injection, schedule: Q04DX002 (ip), vehicle: saline with Tween-80) 97 % of control; (dose: 50.0 mg/kg/injection, schedule: Q04DX002 (ip), vehicle: saline with Tween-80) 101 % of control.
As to `COc1cc2c(cc1OC)CC[N+](CCC[N+](C)(C)C)=C2`, the T/C is 104 % of control (dose: 12.5 mg/kg/injection, schedule: Q01DX009 (ip), vehicle: saline); 95 % of control (dose: 25.0 mg/kg/injection, schedule: Q01DX009 (ip), vehicle: saline); 97 % of control under setting [9]; 89 % of control under setting [10].
In the case of `Nc1nnc(Cc2ccc(Cl)cc2)o1`, the T/C runs as follows: (dose: 60.0 mg/kg/injection, schedule: Q01DX005 (ip), vehicle: saline with Tween-80) 95 % of control; (dose: 120.0 mg/kg/injection, schedule: Q01DX005 (ip), vehicle: saline with Tween-80) 105 % of control; (dose: 240.0 mg/kg/injection, schedule: Q01DX005 (ip), vehicle: saline with Tween-80) 105 % of control.
As for `O=C(O)c1c(Cl)cccc1Cl`, the T/C was 109 % of control under setting [1]; 100 % of control (dose: 25.0 mg/kg/injection, schedule: Q04DX003 (ip), vehicle: saline with Tween-80); 100 % of control under setting [2]; 95 % of control under setting [3]; 100 % of control under setting [4]; 95 % of control under setting [5].
Take `O=S(=O)(O)c1cnc2nccn2c1`: the T/C by setting is: (dose: 50.0 mg/kg/injection, schedule: Q04DX003 (ip), vehicle: suspension in saline) 99 % of control; (dose: 100.0 mg/kg/injection, schedule: Q04DX003 (ip), vehicle: suspension in saline) 110 % of control; (dose: 200.0 mg/kg/injection, schedule: Q04DX003 (ip), vehicle: suspension in saline) 105 % of control.
For `N#C/C(=C1C=C(Br)/C(=N\O)C=C\1Cl)c1cccc2ccccc12`, the T/C by setting is: under setting [2], 103 % of control; under setting [4], 102 % of control; under setting [12], 102 % of control; under setting [13], 115 % of control.
With `CCCCCCCCCCCCCCCCCC(=O)NCNC(=O)CCCCCCCCCCCCCCCCC`, the T/C (dose: 4.68 mg/kg/injection, schedule: Q01DX009 (ip), vehicle: saline with Tween-80) was 100 % of control; the T/C (dose: 9.37 mg/kg/injection, schedule: Q01DX009 (ip), vehicle: saline with Tween-80) was 100 % of control; the T/C (dose: 9.37 mg/kg/injection, schedule: Q04DX003 (ip), vehicle: saline) is 100 % of control; the T/C (dose: 18.75 mg/kg/injection, schedule: Q01DX009 (ip), vehicle: saline with Tween-80) was 90 % of control; the T/C (dose: 18.75 mg/kg/injection, schedule: Q04DX003 (ip), vehicle: saline) is 95 % of control.
With `Nc1c(C(=O)O)[nH]c(=O)[nH]c1=O`, the T/C (dose: 12.5 mg/kg/injection, schedule: Q01DX009 (ip), vehicle: saline with Tween-80) is 119 % of control; the T/C under setting [1] was 119 % of control; the T/C under setting [2] was 120 % of control; the T/C under setting [4] is 118 % of control.
Turning to `CC1CC(C)(C)OC(C2CC=CCC2C)O1` (stereo unspecified), the T/C under setting [6] was 97 % of control, the T/C under setting [7] is 100 % of control and the T/C under setting [8] was 109 % of control.
Consider `CSc1nccn2cnnc12`, for which the T/C (dose: 100.0 mg/kg/injection, schedule: Q01DX001 (ip), vehicle: Klucel (hydroxypropylcellulose) (HPC)) was 101 % of control; the T/C (dose: 200.0 mg/kg/injection, schedule: Q01DX001 (ip), vehicle: Klucel (hydroxypropylcellulose) (HPC)) was 104 % of control; the T/C (dose: 400.0 mg/kg/injection, schedule: Q01DX001 (ip), vehicle: Klucel (hydroxypropylcellulose) (HPC)) was 101 % of control.
`CC(C)(C)NCC(O)CSc1nc(-c2ccc(C(N)=O)s2)cs1` (stereo unspecified): the T/C was 100 % of control under setting [2], 109 % of control under setting [4] and 109 % of control under setting [12].
Take `CN(C)c1nc(=[N+](C)C)ss1`: the T/C runs as follows: under setting [2], 90 % of control; under setting [4], 100 % of control; under setting [12], 113 % of control.
`CC(=O)OCC(=O)[C@@]1(O)CC[C@H]2[C@@H]3C[C@H](C)C4=CC(=O)C=C[C@]4(C)[C@H]3[C@@H](O)C[C@@]21C`: the T/C was 118 % of control under setting [4], 104 % of control under setting [12] and 100 % of control under setting [13].
In the case of `COc1ccc(-c2oc(=O)cc(-c3ccccc3)c2-c2ccccc2)cc1`, the T/C is 112 % of control under setting [6], 93 % of control under setting [7] and 87 % of control under setting [8].
For `O=C(O)O.[Eu]`, the T/C runs as follows: under setting [9], 95 % of control; under setting [11], 93 % of control.
Take `COc1cc(/C=C/C(=O)c2ccccc2O)cc(OC)c1OC`: the T/C under setting [6] is 97 % of control, the T/C under setting [7] was 110 % of control and the T/C under setting [8] was 97 % of control.
Take `O=C(NC(Cc1c[nH]c2ccccc12)C(=O)NC(Cc1ccccc1)C(=O)O)OCc1ccccc1` (stereo unspecified): the T/C under setting [14] is 103 % of control and 93 % of control; the T/C under setting [15] is 106 % of control; the T/C under setting [16] was 89 % of control.
For `C/C(=N\N=C\N(C)S(=O)(=O)c1ccc(C)cc1)c1ccccc1`, the T/C was 104 % of control under setting [14], 98 % of control under setting [15] and 95 % of control under setting [16].
As for `Nc1nc(N)c2c(Cl)c(CNc3ccc(Cl)c(Cl)c3)ccc2n1`, the T/C (dose: 0.18 mg/kg/injection, schedule: Q01DX009 (ip), vehicle: saline with Tween-80) is 97 % of control; the T/C (dose: 0.37 mg/kg/injection, schedule: Q01DX009 (ip), vehicle: saline with Tween-80) is 102 % of control; the T/C (dose: 0.75 mg/kg/injection, schedule: Q01DX009 (ip), vehicle: saline with Tween-80) was 99 % of control; the T/C (dose: 1.5 mg/kg/injection, schedule: Q01DX009 (ip), vehicle: saline with Tween-80) is 99 % of control.
`[Mn].[NH-]C(CSSCC(N)C(=O)O)C(=O)O` (stereo unspecified): the T/C is 97 % of control (dose: 100.0 mg/kg/injection, schedule: Q04DX003 (ip), vehicle: saline); 114 % of control (dose: 200.0 mg/kg/injection, schedule: Q04DX003 (ip), vehicle: saline); 106 % of control (dose: 400.0 mg/kg/injection, schedule: Q04DX003 (ip), vehicle: saline).
On to `CCOC(=O)c1nc[nH]c1C`, for which the T/C by setting is: under setting [6], 100 % of control; under setting [7], 101 % of control; under setting [8], 100 % of control.

The values above are taken from PubChem BioAssay AID330 (DTP/NCI, 2004).
